One data set has as its system HCT-116. Description: cells. The conditions noted are these: Homo sapiens, HCT-116, 72 h.
For a further data set, the system named is HT-29. Description: cells. To be noted: Homo sapiens, HT-29, 72 h.
The nature of data set [1]: Aqueous solubility of compound at 25 degC. The class given is physicochemical. The conditions noted are these: water.

SMILES strings stand for the structures. pIC50: −log10 of the molar value. ≈ marks a conversion by molar mass, not a printed value.

Broadly, the pIC50 is −log10 of the IC50, conventionally taken in molar units. The term solubility denotes the dissolved amount per volume that the medium holds.

Description for HCT-116: Cytotoxicity against human HCT116 cells assessed as reduction in cell viability after 72 hrs by MTT assay
Description for HT-29: Cytotoxicity against human HT-29 cells assessed as reduction in cell viability after 72 hrs by MTT assay

In the case of `C=C1C(=O)O[C@@H]2C3O[C@]3(C)CC/C=C(\C)CC[C@@H]12` (stereo not given in full), the pIC50 in the data set on HCT-116 is 5.31; in the data set on HT-29, 5.47.

In the case of `C[C@@H]1C[C@@H]2OC(=O)[C@@H](CNCCN(C)C)[C@H]2C[C@]2(C)[C@@H](O)CC[C@@H]12` (mixture of isomers), the pIC50 with HCT-116 was below 4.52.

As for `CC(O)CNC[C@@H]1C(=O)O[C@H]2C[C@@H](C)[C@@H]3CC[C@H](O)[C@@]3(C)C[C@@H]21` (mixture of isomers), the pIC50 in the data set with HCT-116 was below 4.52.

Take `CCN(C)C[C@@H]1C(=O)O[C@H]2C[C@@H](C)[C@@H]3CC[C@H](O)[C@@]3(C)C[C@@H]21` (relative stereo): the pIC50 in the data set on HCT-116 was 5.62; in the data set on HT-29 it was 5.79.

Compound `C[C@@H]1C[C@@H]2OC(=O)[C@@H](CNCCCO)[C@H]2C[C@]2(C)[C@@H](O)CC[C@@H]12` (relative stereo) gave a pIC50 in the data set with HCT-116 below 4.52.

In the data set on HCT-116, `CCCCNC[C@@H]1C(=O)O[C@H]2C[C@@H](C)[C@@H]3CC[C@H](O)[C@@]3(C)C[C@@H]21` (relative stereo) had a negative logarithm of the IC50 (pIC50) below 4.52.

In the data set with HCT-116, `CCCCCCNC[C@@H]1C(=O)O[C@H]2C[C@@H](C)[C@@H]3CC[C@H](O)[C@@]3(C)C[C@@H]21` (relative stereo) had a pIC50 below 4.52.

`C[C@@H]1C[C@@H]2OC(=O)[C@@H](CN3CCN(C)CC3)[C@H]2C[C@]2(C)[C@@H](O)CC[C@@H]12` (relative stereo) gave a pIC50 with HCT-116 below 4.52.

Consider `C[C@@H]1C[C@@H]2OC(=O)[C@@H](CN3CCCCC3)[C@H]2C[C@]2(C)[C@@H](O)CC[C@@H]12` (relative stereo), for which the results for the pIC50 with HCT-116 and with HT-29 were 5.08 and 5.41, respectively.

On to `COC(CNC[C@@H]1C(=O)O[C@H]2C[C@@H](C)[C@@H]3CC[C@H](O)[C@@]3(C)C[C@@H]21)OC` (relative stereo), for which the pIC50 with HCT-116 is 4.56.

In the case of `C[C@@H]1C[C@@H]2OC(=O)[C@@H](CN3CCC(N(C)C)CC3)[C@H]2C[C@]2(C)[C@@H](O)CC[C@@H]12` (relative stereo), the pIC50 in the data set on HCT-116 is 4.91.

As for `C[C@@H]1C[C@@H]2OC(=O)[C@@H](CN(C)C)[C@H]2C[C@]2(C)[C@@H](O)CC[C@@H]12` (relative stereo), the pIC50 with HCT-116 was 5.29; with HT-29 it was 5.48.

On to `C[C@@H]1C[C@@H]2OC(=O)[C@@H](CNCCN3CCCC3)[C@H]2C[C@]2(C)[C@@H](O)CC[C@@H]12` (relative stereo), for which, in the data set on HCT-116, the pIC50 is 4.64.

As for `CCN(CC)C[C@@H]1C(=O)O[C@H]2C[C@@H](C)[C@@H]3CC[C@H](O)[C@@]3(C)C[C@@H]21` (relative stereo), the pIC50 is 5.26 with HCT-116 and 5.46 in the data set on HT-29.

For `C[C@@H]1C[C@@H]2OC(=O)[C@@H](CN3CCNCC3)[C@H]2C[C@]2(C)[C@@H](O)CC[C@@H]12` (relative stereo), the pIC50 in the data set with HCT-116 was 4.81.

`CNC[C@@H]1C(=O)O[C@H]2C[C@@H](C)[C@@H]3CC[C@H](O)[C@@]3(C)C[C@@H]21` (relative stereo) showed a pIC50 in the data set with HCT-116 below 4.52.

`C[C@@H]1C[C@@H]2OC(=O)[C@@H](CNCCCN(C)C)[C@H]2C[C@]2(C)[C@@H](O)CC[C@@H]12` (relative stereo) gave a pIC50 in the data set with HCT-116 below 4.52.

Regarding `C[C@@H]1C[C@@H]2OC(=O)[C@@H](CN3CCC(O)CC3)[C@H]2C[C@]2(C)[C@@H](O)CC[C@@H]12` (relative stereo), the values for the pIC50 in the data set with HCT-116 and in the data set with HT-29 were 5.27 and 5.50, respectively.

Compound `CCCNC[C@@H]1C(=O)O[C@H]2C[C@@H](C)[C@@H]3CC[C@H](O)[C@@]3(C)C[C@@H]21` (relative stereo) had a pIC50 with HCT-116 below 4.52.

For `C[C@@H]1C[C@@H]2OC(=O)[C@@H](CN3CCOCC3)[C@H]2C[C@]2(C)[C@@H](O)CC[C@@H]12` (relative stereo), the pIC50 in the data set with HCT-116 was 4.73.

`CC(C)NC[C@@H]1C(=O)O[C@H]2C[C@@H](C)[C@@H]3CC[C@H](O)[C@@]3(C)C[C@@H]21` (relative stereo) showed a pIC50 with HCT-116 of 4.75.

In the case of `C=C1C(=O)O[C@H]2C[C@@H](C)[C@@H]3CC[C@H](O)[C@@]3(C)C[C@H]12` [PSEUDOGUAIANOLIDE], the pIC50 in the data set with HCT-116 is 5.35; with HT-29, 5.47. Moreover, the concentration in solution in data set [1] (solubility) was 200 µg/mL (≈ 799 µM).

Values taken from ChEMBL document CHEMBL4422667, “Synthetic derivatives of the natural product 13-amino 2-desoxy-4-epi-pulchellin inhibit STAT3 signaling and induce G2/M arrest and death of colon cancer cells” (Bioorg Med Chem Lett, 2019).
